According to patent US20130131161A1, “METHODS AND COMPOSITIONS FOR CARDIOVASCULAR DISEASES AND CONDITIONS” (priority 2009, published 2013):
Where “and” joins values, the source holds several entries; their conditions need not be identical. Equal entries are not always repeated.

Test system: Human umbilical vein endothelial cells (HUVECs)
Assay: eNOS activity analysis: NO, ONOO− and NO/ONOO− release from HUVECs of 50 genotyped donors in response to LA-419 (Example 2)
Assay type: cell-based
Procedure: Concurrent measurements of NO and ONOO^− were carried out with tandem electrochemical nanosensors combined into one working unit with a total diameter of 200-500 nm (FIG. 1). Their design was based on previously developed and well-characterized chemically modified carbon-fiber technology (Malinski and Taha, 1992; Lvovich and Scheeline, 1997). Each of the nanosensors was made by depositing a sensing material on the tip of a carbon fiber (length 4-5 μm, diameter 0.2-0.5 μm). The fibers were sealed with nonconductive epoxy and electrically connected to copper wires with conductive silver epoxy. A conductive film of polymeric nickel (II) tetrakis(3-methoxy-4-hydroxyphenyl)porphyrin for the NO-sensor and polymeric film of Mn (III) [2.2]paracyclophanylporphyrin was used for the ONOO^−-sensor.
A module of NO/ONOO^− nanosensors (diameter 1-2 μm) with a platinum wire (0.1 mm) counter electrode and saturated calomel reference electrode (SCE) were applied. Differential pulse voltammetry (DPV) and amperometry were performed with a computer-based Gamry VFP600 multichannel potentiostat. DPV was used to measure the basal NO and ONOO^− concentrations, and amperometry was used to measure changes in NO and ONOO^− concentrations from its basal level with time. The DPV current at the peak potential characteristic for NO oxidation (0.65 V) and ONOO^− reduction (−0.45 V) was directly proportional to the local concentrations of these compounds in the immediate vicinity of the sensor. Linear calibration curves (current vs. concentration) were constructed for each sensor from 10 nM to 3 μM before and after measurements with aliquots of NO and ONOO^− standard solutions, respectively. The detection limit of the sensors was 1.0 nM.
The quantification of each analyte (concentration in nM) was performed using a maximum current from amperograms and standard calibration curves. A reproducibility of measurements with nanosensors is relatively high (between 5-12%). […] The sensors were slowly raised 5±2 μm from the surface of a single endothelial cell. The eNOS agonist, calcium ionophore A23187 (CaI) as well as the different drugs were then added to the surrounding media at the cell surface with a nanoinjector that was also positioned by a computer controlled-micromanipulator.
This example describes the genotype-specific response of the three major eNOS variants to 1 μM and 5 μM concentrations of LA-419. The three major genetic polymorphisms studied were the Glu298Asp variant (E298D or 894G→T) in exon 7 of […], the −786T→C variant in the promoter region, and the intron 4 polymorphism (VNTR). All of these variants have possible effects on the cardiovascular system and endothelial dysfunction. For this study, human umbilical vein endothelial cells (HUVECs) from 50 donors between 18 and 32 years of age were used.
For the analysis several analysis techniques were employed. First, the effect of genotype on NO and ONOO^− release was explored within the different concentrations of LA-419 (control, 1 μM, 5 μM), calculated as the average peak release (nmols/L) of NO, ONOO^−, and NO/ONOO^−. The effect of genotype on the net increase in NO, ONOO^−, and NO/ONOO^− for LA-419 (1 μM and 5 μM) as compared to control was also measured. In addition, an analysis was done on the effect of genotype on the % change in NO, ONOO^−, and NO/ONOO^− production for LA-419 (1 μM and 5 μM), calculated as:
% Change=[(avg. LA-419−avg. control)/(avg. control)]*100
Finally, an evaluation was undertaken concerning the effect of genotype on the production of NO, ONOO^−, and NO/ONOO^− as the fold difference of control for LA-419 (1 μM and 5 μM), calculated as:
Fold Difference=(avg. LA-419)/(avg. control)
Within each calculation technique the results were compared for statistical significance using a non-parametric ANOVA Kruskal-Wallace test or a non-parametric Mann-Whitney U test. Statistical significance was set at a p-value <0.05 in a two-tailed distribution. […]

[1] = (LA-419 1 μM)/(control), T-786C T/C & C/C, n=27
[2] = (LA-419 1 μM)/(control), T-786C T/C, n=23
[3] = (LA-419 1 μM)/(control), T-786C T/T & T/C, n=45
[4] = (LA-419 1 μM)/(control), T-786C T/T, n=22
[5] = (LA-419 5 μM)/(control), Combination of all G894T + T-786C genotypes but G/G + T/T, n=31
[6] = (LA-419 5 μM)/(control), Combination of all G894T + T-786C genotypes but T/T + C/C, n=46
[7] = (LA-419 5 μM)/(control), G894T + T-786C G/G + T/C, n=8
[8] = (LA-419 5 μM)/(control), G894T + T-786C G/G + T/T, n=18
[9] = (LA-419 5 μM)/(control), G894T + T-786C G/T + C/C, n=1
[10] = (LA-419 5 μM)/(control), G894T + T-786C G/T + T/C, n=13
[11] = (LA-419 5 μM)/(control), G894T + T-786C G/T + T/T, n=4
[12] = (LA-419 5 μM)/(control), G894T + T-786C T/T + C/C, n=1
[13] = (LA-419 5 μM)/(control), G894T + T-786C T/T + C/C, n=3
[14] = (LA-419 5 μM)/(control), G894T + T-786C T/T + T/C, n=2
[15] = (LA-419 5 μM)/(control), G894T G/G & G/T, n=44
[16] = (LA-419 5 μM)/(control), G894T G/G, n=26
[17] = (LA-419 5 μM)/(control), G894T G/T & T/T, n=23
[18] = (LA-419 5 μM)/(control), G894T G/T, n=18
[19] = (LA-419 5 μM)/(control), G894T T/T, n=5
[20] = (LA-419 5 μM)/(control), Intron 4 a/a, n=1
[21] = (LA-419 5 μM)/(control), Intron 4 a/a, n=3
[22] = (LA-419 5 μM)/(control), Intron 4 b/a, a/a, c/c, n=14
[23] = (LA-419 5 μM)/(control), Intron 4 b/a, n=10
[24] = (LA-419 5 μM)/(control), Intron 4 b/b, b/a, c/c, n=42
[25] = (LA-419 5 μM)/(control), Intron 4 b/b, n=31
[26] = (LA-419 5 μM)/(control), Intron 4 c/c, n=1
[27] = (LA-419 5 μM)/(control), T-786C C/C, n=1

For `CC(=O)SC1COC2C(O[N+](=O)[O-])COC12` (stereo not drawn) [LA-419, S-(6-Nitro-oxi-hexahydro-furo[3,2-b]furan-3-1-il)thioacetate], the “Fold difference ONOO− (mean ± sd)” value ((LA-419 1 μM)/(control), T-786C C/C, n=4) was 1.11 (0.44), the “Fold difference NO (mean ± sd)” value [1] was 1.15 (0.28) and the “Fold difference NO/ONOO− (mean ± sd)” value [1] was 1.45 (0.75). The “Fold difference ONOO− (mean ± sd)” value [1] was 0.91 (0.31), the “Fold difference NO (mean ± sd)” value [2] was 1.18 (0.30) and the “Fold difference NO/ONOO− (mean ± sd)” value [2] was 1.53 (0.78). The “Fold difference ONOO− (mean ± sd)” value [2] was 0.88 (0.28), the “Fold difference NO (mean ± sd)” value [3] was 1.14 (0.25) and the “Fold difference NO/ONOO− (mean ± sd)” value [3] was 1.39 (0.67). The “Fold difference ONOO− (mean ± sd)” value [3] was 0.91 (0.25), the “Fold difference NO (mean ± sd)” value [4] was 1.09 (0.18) and the “Fold difference NO/ONOO− (mean ± sd)” value [4] was 1.25 (0.52). For the same molecule, the “Fold difference ONOO− (mean ± sd)” value [4] was 0.95 (0.22), the “Fold difference NO (mean ± sd)” value [5] was 1.13 (0.06) and the “Fold difference NO/ONOO− (mean ± sd)” value [5] was 1.40 (0.14). For the same molecule, the “Fold difference ONOO− (mean ± sd)” value [5] was 0.81 (0.07), the “Fold difference NO (mean ± sd)” value [6] was 1.14 (0.06) and the “Fold difference NO/ONOO− (mean ± sd)” value [6] was 1.44 (0.16). For the same molecule, the “Fold difference ONOO− (mean ± sd)” value [6] was 0.81 (0.07), the “Fold difference NO (mean ± sd)” value [7] was 1.14 (0.07) and the “Fold difference NO/ONOO− (mean ± sd)” value [7] was 1.44 (0.18). The “Fold difference ONOO− (mean ± sd)” value [7] was 0.80 (0.07), the “Fold difference NO (mean ± sd)” value [8] was 1.17 (0.06) and the “Fold difference NO/ONOO− (mean ± sd)” value [8] was 1.50 (0.18). For the same molecule, the “Fold difference ONOO− (mean ± sd)” value [8] was 0.79 (0.08) and 0.79 (0.06), the “Fold difference NO (mean ± sd)” value [9] was 1.12 (0) and the “Fold difference NO/ONOO− (mean ± sd)” value [9] was 1.32 (0). The “Fold difference ONOO− (mean ± sd)” value [9] was 0.85 (0), the “Fold difference NO (mean ± sd)” value [10] was 1.13 (0.07) and the “Fold difference NO/ONOO− (mean ± sd)” value [10] was 1.37 (0.11). The “Fold difference ONOO− (mean ± sd)” value [10] was 0.83 (0.04), the “Fold difference NO (mean ± sd)” value [11] was 1.14 (0.05) and the “Fold difference NO/ONOO− (mean ± sd)” value [11] was 1.47 (0.19). The “Fold difference ONOO− (mean ± sd)” value [11] was 0.79 (0.12), the “Fold difference NO (mean ± sd)” value [12] was 1.08 (0) and the “Fold difference NO/ONOO− (mean ± sd)” value [12] was 1.59 (0). The “Fold difference ONOO− (mean ± sd)” value [12] was 0.67 (0), the “Fold difference NO (mean ± sd)” value [13] was 1.12 (0.07) and the “Fold difference NO/ONOO− (mean ± sd)” value [13] was 1.46 (0.14). The “Fold difference ONOO− (mean ± sd)” value [13] was 0.77 (0.08), the “Fold difference NO (mean ± sd)” value [14] was 1.12 (0.09) and the “Fold difference NO/ONOO− (mean ± sd)” value [14] was 1.29 (0.01). The “Fold difference ONOO− (mean ± sd)” value [14] was 0.87 (0.06), the “Fold difference NO (mean ± sd)” value [15] was 1.15 (0.06) and the “Fold difference NO/ONOO− (mean ± sd)” value [15] was 1.44 (0.16). The “Fold difference ONOO− (mean ± sd)” value [15] was 0.80 (0.07), the “Fold difference NO (mean ± sd)” value [16] was 1.16 (0.06) and the “Fold difference NO/ONOO− (mean ± sd)” value [16] was 1.48 (0.18). The “Fold difference ONOO− (mean ± sd)” value [16] was 0.79 (0.07), the “Fold difference NO (mean ± sd)” value [17] was 1.13 (0.06) and the “Fold difference NO/ONOO− (mean ± sd)” value [17] was 1.39 (0.13). For the same molecule, the “Fold difference ONOO− (mean ± sd)” value [17] was 0.82 (0.07), the “Fold difference NO (mean ± sd)” value [18] was 1.13 (0.06) and the “Fold difference NO/ONOO− (mean ± sd)” value [18] was 1.39 (0.13). For the same molecule, the “Fold difference ONOO− (mean ± sd)” value [18] was 0.82 (0.06), the “Fold difference NO (mean ± sd)” value [19] was 1.12 (0.07) and the “Fold difference NO/ONOO− (mean ± sd)” value [19] was 1.39 (0.13). The “Fold difference ONOO− (mean ± sd)” value [19] was 0.81 (0.08), the “Fold difference NO (mean ± sd)” value [20] was 1.17 (0) and the “Fold difference NO/ONOO− (mean ± sd)” value [20] was 1.39 (0). For the same molecule, the “Fold difference ONOO− (mean ± sd)” value [20] was 0.85 (0), the “Fold difference NO (mean ± sd)” value [21] was 1.14 (0.04) and the “Fold difference NO/ONOO− (mean ± sd)” value [21] was 1.37 (0.04). The “Fold difference ONOO− (mean ± sd)” value [21] was 0.83 (0.03), the “Fold difference NO (mean ± sd)” value [22] was 1.16 (0.06) and the “Fold difference NO/ONOO− (mean ± sd)” value [22] was 1.44 (0.13). The “Fold difference ONOO− (mean ± sd)” value [22] was 0.81 (0.05), the “Fold difference NO (mean ± sd)” value [23] was 1.17 (0.07) and the “Fold difference NO/ONOO− (mean ± sd)” value [23] was 1.46 (0.14). For the same molecule, the “Fold difference ONOO− (mean ± sd)” value [23] was 0.80 (0.06), the “Fold difference NO (mean ± sd)” value [24] was 1.14 (0.07) and the “Fold difference NO/ONOO− (mean ± sd)” value [24] was 1.43 (0.17). The “Fold difference ONOO− (mean ± sd)” value [24] was 0.81 (0.07), the “Fold difference NO (mean ± sd)” value [25] was 1.14 (0.07) and the “Fold difference NO/ONOO− (mean ± sd)” value [25] was 1.42 (0.18). For the same molecule, the “Fold difference ONOO− (mean ± sd)” value [25] was 0.81 (0.08), the “Fold difference NO (mean ± sd)” value [26] was 1.17 (0) and the “Fold difference NO/ONOO− (mean ± sd)” value [26] was 1.53 (0). For the same molecule, the “Fold difference ONOO− (mean ± sd)” value [26] was 0.77 (0), the “Fold difference NO (mean ± sd)” value [27] was 1.08 (0) and the “Fold difference NO/ONOO− (mean ± sd)” value [27] was 1.59 (0). For the same molecule, the “Fold difference ONOO− (mean ± sd)” value [27] was 0.67 (0).
